# Experimental data published in ChEMBL document CHEMBL1201862, “PubChem BioAssay data set” (2004).
#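 Protocol summary: plate cells (96-well), add compound at 5 concentrations, incubate 48 h, interpolate endpoints linearly. GI50 = concentration required for 50% inhibition of growth.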 The source made the active and inactive calls. Cut-off read from the data, not from the text of the source: active = GI50 up to about 1.1 µM and inactive = higher.
# Tests used:
# Test in all cases: NCI anticancer screen, dose series, 48 h
# [1] = tested on: A549
# [2] = tested on: ACHN
# [3] = tested on: COLO 205
# [4] = tested on: EKVX
# [5] = tested on: HCC 2998
# [6] = tested on: HCT-15
# [7] = tested on: HL-60
# [8] = tested on: HT-29
# [9] = tested on: IGROV-1
# [10] = tested on: MDA-N
# [11] = tested on: NCI-H522
# [12] = tested on: OVCAR-4
# [13] = tested on: RPMI-8226
# [14] = tested on: SF-268
# [15] = tested on: SK-MEL-28
# [16] = tested on: SK-MEL-5
# [17] = tested on: SK-OV-3
# [18] = tested on: SN12C
Compound,GI50 [1],GI50 [2],GI50 [3],GI50 [4],GI50 [5],GI50 [6],GI50 [7],GI50 [8],GI50 [9],GI50 [10],GI50 [11],GI50 [12],GI50 [13],GI50 [14],GI50 [15],GI50 [16],GI50 [17],GI50 [18]
CCOC(=O)Nc1ccc2c(c1)c(CCCCCCc1nc3ccccc3c3ccc(NC(=O)OCC)cc13)nc1ccccc12,70 µM (inactive),39 µM (inactive),> 100 µM (inactive),< 0.01 µM (active),> 100 µM (inactive),> 100 µM,> 100 µM (inactive),> 100 µM (inactive),> 100 µM (inactive),61.2 µM (inactive),22.9 µM (inactive),29.3 µM (inactive),> 100 µM (inactive),26.5 µM (inactive),52.6 µM (inactive),78.9 µM (inactive),31.8 µM (inactive),40.6 µM (inactive)
COc1cccc(N(CN2C(=O)CCC2OC)C(C)=O)c1 (configuration not stated),> 100 µM (inactive),> 100 µM (inactive),> 100 µM (inactive),,> 100 µM (inactive),> 100 µM,22.6 µM (inactive),> 100 µM (inactive),,> 100 µM (inactive),,> 100 µM (inactive),> 100 µM (inactive),> 100 µM (inactive),> 100 µM (inactive),> 100 µM (inactive),> 100 µM (inactive),> 100 µM (inactive)
[O-][S+](CCc1ccccc1)Nc1ccccc1 (configuration not stated),> 100 µM (inactive),> 100 µM (inactive),> 100 µM (inactive),> 100 µM (inactive),> 100 µM (inactive),> 100 µM,> 100 µM (inactive),> 100 µM (inactive),> 100 µM (inactive),> 100 µM (inactive),> 100 µM (inactive),,> 100 µM (inactive),> 100 µM (inactive),> 100 µM (inactive),> 100 µM (inactive),,> 100 µM (inactive)
CSc1ncnc2c1ncn2CCC(=O)OC(C)(C)C,> 100 µM (inactive),> 100 µM (inactive),> 100 µM (inactive),> 100 µM (inactive),> 100 µM (inactive),,> 100 µM (inactive),> 100 µM (inactive),> 100 µM (inactive),> 100 µM (inactive),> 100 µM (inactive),> 100 µM (inactive),> 100 µM (inactive),> 100 µM (inactive),> 100 µM (inactive),> 100 µM (inactive),> 100 µM (inactive),> 100 µM (inactive)
N#CCCC1(CCC#N)CCCCCCCCC(CCC#N)(CCC#N)C(O)C1O (configuration not stated),73.6 µM (inactive),> 100 µM (inactive),> 100 µM (inactive),> 100 µM (inactive),> 100 µM (inactive),> 100 µM,,> 100 µM (inactive),> 100 µM (inactive),> 100 µM (inactive),30.3 µM (inactive),> 100 µM (inactive),< 0.01 µM (active),37.8 µM (inactive),> 100 µM (inactive),> 100 µM (inactive),> 100 µM (inactive),> 100 µM (inactive)
C=CC[C@@]12CCC(=O)C=C1CCCC2=O,> 100 µM (inactive),> 100 µM (inactive),> 100 µM (inactive),> 100 µM (inactive),> 100 µM (inactive),> 100 µM,> 100 µM (inactive),> 100 µM (inactive),> 100 µM (inactive),> 100 µM (inactive),> 100 µM (inactive),> 100 µM (inactive),> 100 µM (inactive),> 100 µM (inactive),> 100 µM (inactive),> 100 µM (inactive),> 100 µM (inactive),> 100 µM (inactive)
Cc1ncc([N+](=O)[O-])n1CCNC(=O)CCCn1cnc([N+](=O)[O-])n1,> 78.3 µM (inactive),> 100 µM (inactive),> 100 µM (inactive),> 31.6 µM (inactive),> 100 µM (inactive),> 76.6 µM,> 100 µM (inactive),> 100 µM (inactive),> 100 µM (inactive),> 100 µM (inactive),> 100 µM (inactive),> 100 µM (inactive),> 100 µM (inactive),> 100 µM (inactive),> 100 µM (inactive),> 72.4 µM (inactive),> 100 µM (inactive),> 41.8 µM (inactive)
Cc1ccc2[nH]c(=N/c3ccccc3C)/c(=N\c3ccccc3C)[nH]c2c1,20.5 µM (inactive),31.3 µM (inactive),16.1 µM (inactive),24.5 µM (inactive),23.5 µM (inactive),22.3 µM,46.2 µM (inactive),23 µM (inactive),20 µM (inactive),25.5 µM (inactive),10.2 µM (inactive),47.2 µM (inactive),> 100 µM (inactive),48.1 µM (inactive),64.4 µM (inactive),22.1 µM (inactive),43 µM (inactive),32.7 µM (inactive)
